Assay results reported in patent US11236085B2, “PD-1/PD-L1 inhibitors” (Gilead Sciences, Inc., priority 2018, dated 2022).

Target: T1, PD-1/PD-L1 (Homo sapiens, UniProt Q9NZQ7)
Assay: PD-1/PD-L1 biochemical protein-protein interaction assay (ALPHA)
Type: binding
Conditions: 0.3 nM His tagged PD-L1, 2.5 nM biotinylated Fc-PD-1; 60 minutes at 25° C.; read-out: IC50 PD-L1-PD1
Experimental: PD-1/PD-L1 & CTLA/CD80 Biochemical Protein-Protein Interaction Assay
Compounds were tested in biochemical protein-protein interaction assays to determine if they can specifically block the interaction between the extracellular domains of PD-1/PD-L1 or CTLA/CD80. Binding of the protein pairs is measured using a bead based Amplified Luminescent Proximity Homogeneous Assay (ALPHA) platform. Binding of each protein pair results in proximity of the donor and acceptor beads which leads to an increase in ALPHA signal. Disruption of the protein-protein interaction with a test compound results in a decrease in ALPHA signal. Assays are performed in 25 mM Hepes (pH 7.4), 150 mM NaCl, 3.4 mM EDTA, 0.005% Tween 20, and 0.01% BSA. Final protein concentration in the assays were 0.3 nM (His tagged PD-L1), 2.5 nM (biotinylated Fc-PD-1), 1 nM (His tagged CTLA4) and 1 nM (biotinylated CD80). After an assay reaction time of 60 minutes at 25° C., binding was measured with addition of 20 μg/mL ALPHA assay acceptor beads (anti-His coated) and 20 µg/mL ALPHA assay donor beads (streptavidin coated). IC50 values were calculated from the fit of the dose-response curves to a four-parameter equation. Representative data are shown below in Table 3.
Target sequence in this assay (Q9NZQ7 19-238 limits assumed): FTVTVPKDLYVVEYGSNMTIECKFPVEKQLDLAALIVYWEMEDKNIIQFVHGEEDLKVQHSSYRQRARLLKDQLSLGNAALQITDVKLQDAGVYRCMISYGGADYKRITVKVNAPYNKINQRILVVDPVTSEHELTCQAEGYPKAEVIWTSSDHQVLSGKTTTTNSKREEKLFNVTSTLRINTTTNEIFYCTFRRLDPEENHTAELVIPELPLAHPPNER

In order of falling IC50:
1. COc1nc(-c2cccc(-c3cccc(-c4cc5c(s4)CCNC5)c3Cl)c2Cl)ccc1CNC[C@@H]1CCC(=O)N1 [Compound 33]  1.04 nM
2. COc1nc(-c2cccc(-c3cccc(-c4nc5c(s4)CNCC5)c3Cl)c2Cl)ccc1CNCCO [Compound 31]  0.431 nM
3. Cc1c(COc2cc(OCc3cncc(C#N)c3)c(CNC[C@@H](O)CC(=O)O)cc2Cl)cccc1-c1cccc(-c2ccc3c(c2)CNCC3NC(=O)NC2CC2)c1C (stereo partly drawn) [Compound 13]  0.147 nM
4. Cc1c(COc2cc(OCc3cncc(C#N)c3)c(CN[C@@](C)(CO)C(=O)O)cc2Cl)cccc1-c1cccc(-c2ccc3c(c2)CNCC3)c1C [Compound 5]  0.136 nM
5. CNC(=O)NC1CNCc2cc(-c3cccc(-c4cccc(COc5cc(OCc6cncc(C#N)c6)c(CNC[C@@H](O)CC(=O)O)cc5Cl)c4C)c3C)ccc21 (stereo partly drawn) [Compound 20]  0.064 nM

Target: T2, PD-L1 (Homo sapiens, UniProt Q9NZQ7)
T2 construct: determine if they can specifically dimerize the extracellular domains of PD-L1
T2 sequence (Q9NZQ7 19-238 limits assumed): as above
T2 sequence (Q9NZQ7 19-238 limits assumed): as above
Assay: PD-L1/PD-L1 dimerization biochemical protein-protein interaction assay (ALPHA)
Conditions: 0.5 nM His tagged PD-L1 and 0.5 nM FLAG tagged PD-L1; compound induced dimerization; read-out: AC50 PDL1 Dimer 1 nM
Experimental: PD-L1/PD-L1 Dimerization Biochemical Protein-Protein Interaction Assay
Compounds were tested in biochemical protein-protein interaction assays to determine if they can specifically dimerize the extracellular domains of PD-L1. Dimerization of the proteins (His-tagged PD-L1 and FLAG-tagged PD-L1) is measured using a bead based Amplified Luminescent Proximity Homogeneous Assay (ALPHA) platform. […] Assays are performed in 25 mM Hepes (pH 7.4), 150 mM NaCl, 3.4 mM EDTA, 0.005% Tween 20, and 0.01% BSA. Final protein concentration in the assays were 0.5 nM (His tagged PD-L1) and 0.5 nM (FLAG tagged PD-L1). After an assay reaction time of 2 hours at 25° C., 20 μg/mL (final assay concentration) ALPHA assay acceptor beads (anti-His coated) were added and incubated for 60 minutes at 25° C. Binding was measured following a final 60 minute incubation with 40 μg/mL (final assay concentration) ALPHA assay donor beads (anti-FLAG coated). AC50 values were calculated from the fit of the dose-response curves to a four-parameter equation (Table 4).

In order of rising AC50:
1. CNC(=O)NC1CNCc2cc(-c3cccc(-c4cccc(COc5cc(OCc6cncc(C#N)c6)c(CNC[C@@H](O)CC(=O)O)cc5Cl)c4C)c3C)ccc21 (stereo partly drawn) [Compound 20]  20.8 nM
2. Cc1c(COc2cc(OCc3cncc(C#N)c3)c(CNC[C@@H](O)CC(=O)O)cc2Cl)cccc1-c1cccc(-c2ccc3c(c2)CNCC3NC(=O)NC2CC2)c1C (stereo partly drawn) [Compound 13]  26.9 nM
3. Cc1c(COc2cc(OCc3cncc(C#N)c3)c(CN[C@@](C)(CO)C(=O)O)cc2Cl)cccc1-c1cccc(-c2ccc3c(c2)CNCC3)c1C [Compound 5]  57 nM
4. COc1nc(-c2cccc(-c3cccc(-c4cc5c(s4)CCNC5)c3Cl)c2Cl)ccc1CNC[C@@H]1CCC(=O)N1 [Compound 33]  145 nM
5. COc1nc(-c2cccc(-c3cccc(-c4nc5c(s4)CNCC5)c3Cl)c2Cl)ccc1CNCCO [Compound 31]  314 nM

Target: T1, PD-1/PD-L1
Assay: PD-1/PD-L1 NFAT reporter assay (co-culture of aAPC-PD-L1 CHO cells and Jurkat cells overexpressing PD-1, NFAT luciferase)
Type: cell-based
Design: expressed in transfected cells; host or cells: CHO cells (aAPC-PD-L1) co-cultured with Jurkat cells overexpressing PD-1
Conditions: co-culture incubated for 6 hrs at 37° C.; luciferase under NFAT control
Experimental: PD-1/PD-L1 NFAT Reporter Assay
Compounds were tested in a functional co-culture reporter assay in which TCR-mediated NFAT activity is inhibited by the engagement of PD-1 with PD-L1. […] CHO cells expressing surface-bound anti-CD3 antibodies and PD-L1 (artificial antigen presenting cells, aAPC-PD-L1) were first seeded overnight. Jurkat cells overexpressing PD-1 and expressing a luciferase construct under NFAT control are diluted in RPMI assay medium (RPMI 1640 with 2% FBS), mixed with compounds, and immediately seeded on the monolayer of aAPC-PD-L1. The co-culture is then incubated for 6 hrs at 37° C. Luciferase activity is assessed by adding the ONE-Glo reagent and measuring luminescence with a plate reader. EC50 values are calculated from the fit of the dose-response curves to a four-parameter equation (Table 4).
Target sequence in this assay (Q9NZQ7 19-290): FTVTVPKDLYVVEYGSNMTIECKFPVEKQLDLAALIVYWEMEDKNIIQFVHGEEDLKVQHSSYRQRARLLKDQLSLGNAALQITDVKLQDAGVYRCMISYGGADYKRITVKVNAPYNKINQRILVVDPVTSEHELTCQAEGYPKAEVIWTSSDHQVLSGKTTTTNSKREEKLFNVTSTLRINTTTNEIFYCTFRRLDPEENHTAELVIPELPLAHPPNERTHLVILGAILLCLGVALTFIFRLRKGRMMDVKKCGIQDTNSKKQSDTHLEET

In order of falling EC50:
1. COc1nc(-c2cccc(-c3cccc(-c4nc5c(s4)CNCC5)c3Cl)c2Cl)ccc1CNCCO [Compound 31]  674 nM
2. COc1nc(-c2cccc(-c3cccc(-c4cc5c(s4)CCNC5)c3Cl)c2Cl)ccc1CNC[C@@H]1CCC(=O)N1 [Compound 33]  170 nM
3. Cc1c(COc2cc(OCc3cncc(C#N)c3)c(CN[C@@](C)(CO)C(=O)O)cc2Cl)cccc1-c1cccc(-c2ccc3c(c2)CNCC3)c1C [Compound 5]  134 nM
4. CNC(=O)NC1CNCc2cc(-c3cccc(-c4cccc(COc5cc(OCc6cncc(C#N)c6)c(CNC[C@@H](O)CC(=O)O)cc5Cl)c4C)c3C)ccc21 (stereo partly drawn) [Compound 20]  95 nM
5. Cc1c(COc2cc(OCc3cncc(C#N)c3)c(CNC[C@@H](O)CC(=O)O)cc2Cl)cccc1-c1cccc(-c2ccc3c(c2)CNCC3NC(=O)NC2CC2)c1C (stereo partly drawn) [Compound 13]  90 nM
